From patent publication US10960084B2, “Modulation of fluid intake” (California Institute of Technology, priority 2018, dated 2021)
Entries after “also recorded” stand apart in the source; their conditions may differ.

Test system: MnPO^GLP1r neurons
Test: Drinking assays with chemogenetic inhibition of MnPO^GLP1r neurons by CNO
Type: in vivo, mice
Conditions: hM4Di in MnPO^GLP1r
Method: For water-restriction experiments, animals were provided with 1 mL of water daily. For food restriction experiments, animals were provided 0.5 pellets/20 g body weight daily. All assays were performed in a modified lickometer as described previously^[35] or Biodaq monitoring system (Research Diets Inc). For all photometry assays, animals were acclimatized for 10-15 min in the lickometer cage before stimuli were given.
Long-term access assays: Optogenetic Testing—For FIGS. 1L-N and FIGS. 7L-O, satiated mice were given ad libitum access to water for 20 min with photostimulation. Photostimulation was delivered for 1-s followed by 3-s intervals throughout the behavioral sessions. For FIGS. 2J-M and FIGS. 11C-E, mice were given access to water for 20 min after 24 h water-restriction, and photostimulation was delivered for the first 10 min. For feeding assays (FIGS. 2J-M), animals were single-housed in Biodaq cages after 24 h food-restriction, and chow intake was measured for 20 min with or without light stimulation. For acute inhibition experiments, mice were given access to 150 mM NaCl (FIGS. 5D-E, FIGS. 13E-F), water (FIGS. 1L-N, FIGS. 7L-O, FIGS. 13A-D, FIGS. 13G-H) for 20-30 min after 24 h water-restriction or 300 mM sucrose (FIGS. 1L-N, FIGS. 7L-O) after food-restriction. For all acute inhibition experiments, CNO was injected at 10 mg/kg body weight, 30 min prior to the start of the behavior session. For acute activation experiments, CNO was injected at 1 mg/kg body weight (FIGS. 12L-M), 30 min prior to the start of the behavior session. For FIG. 3A, FIGS. 9A-C, and FIG. 13L, water or saline access was provided for 30 min after 24 hours of water restriction. For FIGS. 4A-B, water or HydroGel (ClearH2O) in a cup was provided for 30 min after 24 and 36 hours of water restriction, respectively. The weight of the cup was measured before and after the behavior session. For FIGS. 4K-L, 0.5 pellets of chow was provided for 30 min after 24 h food-restriction. The entire session was recorded using a camera at 30 fps and ingestion episodes were manually annotated.

## C[N+]1([O-])CCN(C2=Nc3cc(Cl)ccc3Nc3ccccc32)CC1 [CNO, clozapine-N-oxide]
satiated
  water or saline intake under satiated conditions: did not elevate water or saline intake
water-restricted animals
  total water intake (30 min): minor effect
  water consumption at the onset of drinking (first 1 min): significantly increases water consumption at the onset of drinking
water-restricted, 30 min, CNO 10 mg/kg vs vehicle
  total amount of isotonic saline intake: strikingly increased; also recorded: causes overdrinking of isotonic saline
water-restricted, 30 min, CNO vs vehicle
  duration of saline intake (time spent for drinking): strikingly increased
